Counter-ions that a name gives are not always drawn.
What was measured:
[1] = tested on: whole native progenitor cells (CD45−/CD34+/CD31−); test: In vitro adipogenesis of whole native progenitor cells; type: cell-based, human; details: 0.25 mM IBMX for 3 days, ITTC medium until day 10
Excerpt: (§1) An immuno-selection/depletion approach was developed to obtain the native progenitor cell subsets starting from 50.10^6 to 150.10^6 SVF cells. The total progenitor cell population (CD34+/CD31− cells) was obtained in two steps: immune cells were first removed using CD45 positive cell-depletion step (CD45-depletion kit from Stemcell Technologies, Grenoble, France) followed by endothelial cell depletion step using an anti-CD31-depletion kit (R&D Systems, Lille, France) according to manufacturer's protocol. To further isolate the distinct progenitor cell subsets, the Mscal-positive cells were selected from the CD45−/CD31− cells, the −/CD271 positive cells were selected from the CD45−/CD31−/MSCA1− cells and the CD45−/CD31−/MSCA1−/CD271− (−/−) cells using CD34 immuno-magnetic selection kits (MSCA1+, CD271+ and CD34+ immuno-magnetic selection kits were from Miltenyi Biotec, Paris, France). The purity of each fraction was assessed after selection by flow cytometry analyses.

[2] = tested on: MSCA1+ cells (CD45−/CD34+/CD31−/CD271+/MSCA1+); test: In vitro adipogenesis of the immunoselected MSCA1+ cell subset; type: cell-based, human; details: IBMX stimulation
Excerpt: as §1
(§2) Total RNAs were extracted using the RNeasy kit (Qiagen). […] RNAs were reverse-transcribed using Superscript® II kit (Invitrogen). TaqMan® Primers are listed in supplemental data Table 1.
Cells or small pieces of whole AT were fixed (paraformaldehyde 4%, room temperature for 15 min for cultured cells and up to 1 h for whole AT). […]

[3] = tested on: native human AT progenitor cells
Description: 120 000 cells were plated per cm^2 in growth medium (ECGM MV) supplemented with […] penicillin-streptomycin. 48 h after seeding, medium was changed into basal defined medium (ECBM) supplemented with […] penicillin-streptomycin, 66 nmol/L Insulin, 1 nmol/L Triiodothyronine, 0.1 μg/ml human Transferrin, 100 nmol/L Cortisol (ITTC, Control) supplemented or not with 3 μmol/L Rosiglitazone or 0.25 mM isobuthylmethaxantine (IBMX). After 3 days, medium was changed and cells were maintained in ITTC medium until day 10. Cells were fixed (paraformaldehyde 4%, 15 min, RT), and stained with Bodipy 493/503 (10 μg/ml, 15 min, Invitrogen) and Hoechst 33342 (5 μg/ml, 15 min, Invitrogen). Stainings were observed by inversed fluorescent microscope (Nikon Eclipse TE300) and 5 pictures were randomly taken under 20X objective (numeric camera and acquisition software NIS-Elements 2.5 BR, Nikon®). Differentiation area (Bodipy stained area, μm^2) was measured with ImageJ software and normalized by nuclei cell number in order to obtain the differentiation area (μm^2) per cell. Total RNAs were extracted using the RNeasy kit (Qiagen). The RNA concentration was measured by fluorimetric assay (Ribogreen, Invitrogen). RNAs were reverse-transcribed using Superscript® II kit (Invitrogen). TaqMan® Primers are listed in supplemental data Table 1. The amplification reaction was done in duplicate on 15 ng of the cDNA samples in a final volume of 20 μL in 96-well reaction plates (Applied Biosystems) in a GeneAmp 7500 detection system (Applied Biosystems). All reactions were performed under the same conditions: 50° C. for 2 minutes, 95° C. for 10 minutes, 40 cycles of 95° C. for 15 seconds, and 60° C. for 1 minute. Results were analyzed with the GeneAmp 7500 software and all values were normalised to 18S rRNA levels. Progenitor cells were cultured under adipogenic conditions with or without 50 μM or 500 μM of tetramisole hydrochloride, an alkaline phosphatase inhibitor. After 3 to 10 days, Bodipy staining was performed or RNAs extracted. Progenitor cells were seeded at the density of 90000/cm2 cells in 12 well-plates. After 24 hours, cells were transfected with 500 ng/mL of MISSION® esiRNA against tissue non-specific alkaline phosphatase (MSCA1) or GFP as negative control with 1 μL of lipofectamine® 2000 (invitrogen) in 1 mL of basal medium. After 12 hours, medium was removed and cells were rinsed once with PBS and cultured under adipogenic conditions for 3 to 10 days and RNAs were extracted.

Progenitor cells = test: BMP7 adipogenic culture protocol; type: cell-based, human; details: 50 ng/mL for 2 days, then 9 days in ITTC
Description: Progenitor cells were treated during 2 days with recombinant human BMP7 (50 ng/mL) then 9 days in adipogenic medium (ITTC).
MSCA1 gene expression and activity were measured. UCP1 gene expression was measured by RT-PCR.
as §2

## CC(C)Cn1c(=O)n(C)c(=O)c2[nH]cnc21 [IBMX, 3-isobutyl-1-methylxanthine]
[1]
  differentiation: only slightly and insignificantly increased
[2]; 0.25 mM
  differentiation (lipid laden cells): marked appearance of lipid laden cells
[2]; immunofluorescence
  UCP1-positive cell clusters: only found in cells from the MSCA1+ subset

## c1ccc(C2CN3CCSC3=N2)cc1 (stereo not shown) [tetramisole, tetramisole hydrochloride]
[3]; 50 μM or 500 μM, adipogenic culture conditions
  total number of nucleated cells: without altering
[3]; 50 μM or 500 μM, adipogenic culture conditions, Bodipy staining
  adipocyte differentiation: concentration-dependent decrease
[3]; day 3
  expression of adipogenic and adipocyte-specific genes after the commitment period: No statistically significant effect
[3]; day 10
  expression of adipogenic transcription factors PPARγ2, CHREBP, C/EBPα and adipocyte-specific genes LPL, GPDH, PLIN1: decreased

B1: BMP7: recombinant human BMP7, a Bone Morphogenetic Protein (protein, UniProt P18075 293-431, looked up)
Bone morphogenetic protein 7: STGSKQRSQNRSKTPKNQEALRMANVAENSSSDQRQACKKHELYVSFRDLGWQDWIIAPEGYAAYYCEGECAFPLNSYMNATNHAIVQTLVHFINPETVPKPCCAPTQLNAISVLYFDDSSNVILKKYRNMVVRACGCH
Progenitor cells
  activity of the MSCA1 gene: significantly increased
  expression of the MSCA1 gene: significantly increased
Progenitor cells; RT-PCR
  UCP1 gene expression: significant increase

Source: patent US20160160179A1, “METHOD FOR OBTAINING A POPULATION OF ISOLATED BRITE ADIPOCYTES” (INSERM (INSTITUT NATIONAL DE LA SANTÉ ET DE LA RECHERCHE …, priority 2013, published 2016)
